The values that follow come from publication PMC8659091, “Preparation, Characterization, and Bioavailability of Host-Guest Inclusion Complex of Ginsenoside Re with Gamma-Cyclodextrin” (Molecules, 2021).

Data set [1] is described as follows: Dissolution test in water (rotatory-basket method). Type of data set: physicochemical. Particulars: at 30 min, 37 °C, 100 rpm, 20 mg as Re in 200 mL. The procedure: G-Re, G-Re-γ-CD physical mixtures, and the G-Re-γ-CD ICs (20 mg as Re) were inserted into a basket in a automatic dissolution testing system (RC806D, Tianjin Tianda Technology Co.,Ltd, Tianjin, China) containing 200 mL of water according to the dissolution method (Chp. 2020 Vol II Addium XC rotatory-basket method). The speed was set at 100 rpm, and the temperature was 37 ± 0.5 °C. Then an equal amount of solution (1 mL) needed to be taken at timepoints of 5, 15, 30, 45, and 60 min; at the same time, 1 mL solution should be replaced. As described below, the determination of G-Re concentration by 205 nm high-performance liquid chromatography was feasible. The G-Re concentration was detected with the same HPLC method applied in the phase solubility test.
(§1) The contents of G-Re from the dissolution sample and phase solubility sample were determined with the help of HPLC on the C18 column (Ascentis® Express, 10 cm × 2.1 mm, 2.6 μm, Sigma, USA), which was installed an Agilent system. This system consisted of a micro degasser, an auto plate sampler, a system binary pump, as well as a thermostatically controlled column apartment at 30 °C. Samples were separated under elution conditions at A (acetonitrile) and B (water) = 19: 81 (v/v). Then, the flow rate was set at 0.5 mL per minute and the injection volume at 5 μL, while the G-Re was detected spectrophotometrically at 205 nm.

On the set-up of data set [2]: method as in PMID 22314249, PMID 25197955, PMID 19729261. Particulars: after oral administration; cited from earlier work.
The nature of data set [3]: Pharmacokinetic / bioavailability study after single oral administration, plasma LC-MS/MS. It counts as in vivo, Sprague-Dawley rats. Particulars: rats, 100 mg/kg, mean ± SD. The procedure:
The animal studies carried out in this study strictly followed the instructions of the Animal Care and Use Committee of the Changchun university of Chinese medicine (Approval Number: 20190030). Adult male Sprague-Dawley rats (200-220 g; Yisi Experimental Animal Technology Co., Ltd., Changchun, China Approved number: SCXK (JI) 2018-0007) were used for the pharmacokinetic studies. All rats were not allowed to be fed for 24 h before the oral dosing and likewise after the drug administration. Besides, all of them needed to be brought up under a controlled temperature ranging from 20 to 24 °C with a 12-h light/dark cycle. G-Re powder and G-Re-γ-CD complex were suspended in double-distilled water prior to use at 100 mg/kg. […] The blood samples were centrifuged for 10 min at 4000 rpm to harvest the plasma sample (100 μL). Then, the G-Rf (10 μL, 10 ng/mL) was added into each tube rapidly to work as the inherent criterion. After that, a mixed 0.5 mL methanol-acetonitrile (60:40, v/v) should be added for precipitating proteins and extracting interested compounds. The samples were then rotated for 3 min and centrifuged at 15,000×grams for 10 min. By separating and evaporating, the supernatant was obtained on the condition that the nitrogen flow dried gently at 40 °C. Additionally, the residue was reconstituted by vortexing for 1 min with 0.2 mL methanol-water (80:20, v/v). Furthermore, the supernatant was transferred into auto-sampler vials using 5 μL aliquot to inject to the LC-MS/MS system. This method could be carried out by a combination of a Thermo TSQ Endura triple-quadrupole tandem mass spectrometer (Thermo Fisher Inc., Waltham, USA), which is a method named electrospray ionization (ESI), and an Ultimate 3000 LC system which is composed of a vacuum degasser, a quaternary pump, as well as an auto-sampler. Xcalibur 2.2 (SP1.48) software was used to acquire and analyze the data (Thermo Fisher Inc., Waltham, USA). After that, the separation of chemical materials was conducted by using the reverse-phase Accucore C18 analytical column (100 mm × 2.1 mm, 2.6 μm, Thermo Fisher Inc., Waltham, USA). This column was available for the linear gradient elution by using the mobile phase, which consisted of water embracing 0.1% formic acid (A) and acetonitrile (B). Steps are described as follows: 0 min (A 75%-B 25%)-5.0 min (A 70%-B 30%)-8 min (A 68%-B 32%)-9 min (A 64%-B 36%)-16 min (A 63%-B 37%)-16.8 min (A 52%-B 48%)-17.8 min (A 30%-B 70%)-18.8 min (A 10%-B 90%)-20.8 min (A 75%-B 25%)-25 min (A 75%-B 25%). The flow rate should be 0.2 mL per minute, and the volume of injection needed to be 5 μL. This process needed to be performed using the ESI negative ionization and multiple reactions monitoring (MRM) mode. Furthermore, the parameters of spray voltage were 3 kV, the parameters of capillary temperature was 325 °C, and the pressure of nitrogen sheath gas and auxiliary gas were 30 arb and 10 arb. The formic acid adduct [M+HCOO]- is the dominant parent ion of products. […] Finally, the ion transition situations for multiple reactions monitoring (MRM) were m/z 945.5→637.3 and 637.3→475.3 for G-Re, m/z 799.5→637.3 and 637.3→475.3 for IS. After oral administration, non-compartment approaches could be utilized [NT]-Re's t pharmacokinetic parameters. The part under the plasma concentration-time curve increasing from 0 to infinity (AUC0→∞) could be computed by the equation AUC0→∞ = AUCt + Ct/k. In this equation, Ct could be seen as the last concentration which could be quantized, and the calculation of k could be conducted by a straight-line's slope in plasma disappearance's terminal phase. […] Furthermore, with the help of linear trapezoidal approximation, it was easy to calculate the area below the plasma concentration-time curve increasing from 0 to the time of the last quantifiable concentration (AUCt). The calculation of bioavailability value for G-Re's oral doses needed to be conducted according to the AUC's dose-adjusted ratio. […]

Data set [4] in a line: Phase solubility study of G-Re with CDs in water. It counts as physicochemical. Particulars: for stability constant Ks: G-Re with the CD, 1:1 stoichiometry; for △G: Gibbs free energy change of complexation with G-Re, ΔG = −RTln Ks; for Ks: apparent stability constant of G-Re with the CD, Ks=slope/S0(1-slope); for Ks / 1/Slope / Slope: water, 25 °C; for 1/Slope: phase solubility of G-Re; for Slope: slope of phase solubility curve of G-Re vs CD concentration. The protocol: Phase solubility studies were performed in water in accordance with the method formerly stated by Higuchi and Connors. In brief, an excess amount of G-Re was supplemented into 10 mL Eppendorf tubes with aqueous solution, including various concentrations of α-CD, β-CD, and γ-CD, respectively. Suspensions were vigorously shaken in 25 °C water bath for a week. After equilibrium was reached, the solutions were centrifuged for 5 min at 4000 rpm (1500 g). Meanwhile, a 0.22 μm membrane was used to further filter the supernatant. The filtrate was diluted and HPLC was employed to determine G-Re content.
The phase solubility curves were obtained with the regression of the concentrations of cyclodextrin (mol L^−1) as X-axis and the concentration of G-Re (mol L^−1) as Y-axis. The value of apparent stability constant (Ks) was defined by using the straight-line portion in the phase-solubility to the equation as follows: Ks=slope/S0(1-slope)
In this formula, R can be seen as the general gas constant, which equaled 8.314 J/mol K, and T can be considered as the experimental operating temperature.
as §1

Where [5] appears, read: male, Sprague-Dawley, rat, plasma, n = 6.

Like-named read-outs stand apart in the source and are kept apart here.

Take `CC(C)=CCC[C@](C)(O[C@@H]1O[C@H](CO)[C@@H](O)[C@H](O)[C@H]1O)[C@H]1CC[C@]2(C)[C@@H]1[C@H](O)C[C@@H]1[C@@]3(C)CC[C@H](O)C(C)(C)[C@@H]3[C@@H](O[C@@H]3O[C@H](CO)[C@@H](O)[C@H](O)[C@H]3O[C@@H]3O[C@@H](C)[C@H](O)[C@@H](O)[C@H]3O)C[C@]12C` [G-Re, Ginsenoside Re]: in data set [1], the dissolution rate was determined as 6.73%. Also, in data set [2], the bioavailability result is recorded as “low” and the tmax entry was “short”. Also, in data set [3] (setting [5]), the AUC(0-inf) worked out at 130 ± 54.1 ng·h/mL, the highest concentration (Cmax) amounted to 32.2 ± 8.15 ng/mL, the MRT stood at 5.15 ± 0.968 h and the half-life is 12.2 ± 1.56 h. In addition, in data set [3] (setting [5]), the tmax amounted to 1.02 ± 0.036 h. For the same compound, the AUC(0-t) in data set [3] (male, Sprague-Dawley, rat, plasma, n = 6, called AUC0–t, read-out: AUC0–24h) amounted to 113 ± 44.6 ng·h/mL. Also, in data set [3] (n = 6), the CLt is reported as 2.401 ± 0.52 L/h and the Vdss is given as 13.691 ± 3.74 L/kg.

With `OC[C@H]1O[C@@H]2O[C@H]3[C@H](O)[C@@H](O)[C@@H](O[C@H]4[C@H](O)[C@@H](O)[C@@H](O[C@H]5[C@H](O)[C@@H](O)[C@@H](O[C@H]6[C@H](O)[C@@H](O)[C@@H](O[C@H]7[C@H](O)[C@@H](O)[C@@H](O[C@H]1[C@H](O)[C@H]2O)O[C@@H]7CO)O[C@@H]6CO)O[C@@H]5CO)O[C@@H]4CO)O[C@@H]3CO` [α-CD], in data set [4], the “stability constant Ks” value was 22 M⁻¹, the “△G” value is -1.831 kcal/mol, the Ks was 22 M⁻¹ and the 1/Slope was 116.28. Besides, the Slope in data set [4] is on record as 0.0086.

Turning to `OC[C@H]1O[C@@H]2O[C@H]3[C@H](O)[C@@H](O)[C@@H](O[C@H]4[C@H](O)[C@@H](O)[C@@H](O[C@H]5[C@H](O)[C@@H](O)[C@@H](O[C@H]6[C@H](O)[C@@H](O)[C@@H](O[C@H]7[C@H](O)[C@@H](O)[C@@H](O[C@H]8[C@H](O)[C@@H](O)[C@@H](O[C@H]1[C@H](O)[C@H]2O)O[C@@H]8CO)O[C@@H]7CO)O[C@@H]6CO)O[C@@H]5CO)O[C@@H]4CO)O[C@@H]3CO` [β-CD], in data set [4], the “stability constant Ks” value was 612 M⁻¹, the “△G” value is -3.7976 kcal/mol, the Ks stood at 612 M⁻¹ and the 1/Slope was 5.16. Further, in data set [4], the Slope is given as 0.1935.

With `OC[C@H]1O[C@@H]2O[C@H]3[C@H](O)[C@@H](O)[C@@H](O[C@H]4[C@H](O)[C@@H](O)[C@@H](O[C@H]5[C@H](O)[C@@H](O)[C@@H](O[C@H]6[C@H](O)[C@@H](O)[C@@H](O[C@H]7[C@H](O)[C@@H](O)[C@@H](O[C@H]8[C@H](O)[C@@H](O)[C@@H](O[C@H]9[C@H](O)[C@@H](O)[C@@H](O[C@H]1[C@H](O)[C@H]2O)O[C@@H]9CO)O[C@@H]8CO)O[C@@H]7CO)O[C@@H]6CO)O[C@@H]5CO)O[C@@H]4CO)O[C@@H]3CO` [γ-CD], in data set [4] (G-Re as guest), the “inclusion constant relative to that of α-CD” value was 655 times. Besides, in data set [4], the “△G” value was -5.673 kcal/mol, the Ks amounted to 14410 M⁻¹, the 1/Slope worked out at 1.18 and the Slope came to 0.8494.

By AUC(0-inf) is commonly meant total exposure, with the tail of the curve extrapolated. As usually defined, the Cmax is the highest concentration seen after dosing. As usually defined, the MRT is the average time that molecules of a dose stay in the body. The term half-life denotes how long it takes for the measured level to halve.
